# Measured values reported in patent publication US20150031554A1, “EXTRACELLULAR TELOMERE ASSAY” (The UAB Research Foundation, priority 2012, published 2015).
# How the values were obtained:
# G-quadruplex = conditions: versus duplex, single strand, and hairpins; method of Balasubramanian et al.; cited from earlier work
# [1] = system: human MDA-MB-23 1 breast cancer cells; test: Extracellular telomere release into cell-free conditioned media (qPCR); format: cell-based
# Procedure: (§1) The samples to be tested were centrifuged at 1200×g for 6 minutes to remove residual cells. The supernatant was removed and centrifuged at 12,000× for 12 minutes to remove cellular debris. DNA was isolated from the final supernatant using a Qiagen DNA isolation kit. The DNA concentration of each sample was determined with the highly sensitive pico-green fluorometric assay (Invitrogen; Carlsbad, Calif.).
# (§2) The obtained purified cell-free DNA was assayed for extracellular telomere sequences. Extracellular telomeres were measured using quantitative PCR (qPCR) with the widely accepted method of Cawthon (“Telomere measurement by quantitative PCR,” Nucleic Acids Research, 30:e47 (2002)). Other DNA sequences (actin, BRCA 1, alpha satellite DNA, and Alu repeats) were analyzed using published primers and conditions. Normal human genomic DNA (Roche; Basel, Switzerland) was used to create a telomere qPCR standard curve for the clinical specimens. For mouse standard curves, normal mouse genomic DNA isolated from murine peripheral blood cells was used.
# [2] = system: D54, a human brain cancer cell line; test: Extracellular telomere release into conditioned media (qPCR); format: cell-based; conditions: in response to doxorubicin treatment (FIG. 2B)
# Procedure: as §1, §2
# [3] = system: U373, a human brain cancer cell line; test: as above; format: cell-based; conditions: in response to doxorubicin treatment (FIG. 2A)
# Procedure: as §1, §2
SMILES,selectivity of capture (G-quadruplex),"extracellular telomere release ([1]; doxorubicin 10^−5 M, indicated times, Alu and alpha satellite sequences as controls (FIG. 1))","telomere enrichment in cell-free conditioned media ([1]; qPCR, compared with untreated cells or cells subjected to hypoxia, 2 independent experiments (FIG. 5))",extracellular telomere release [2],extracellular telomere release [3]
"NCCOc1cc(C(=O)Nc2cc(OCCN)c3ccccc3n2)nc(C(=O)Nc2cc(OCCN)c3ccccc3n2)c1 [compound 2, pyridostatin]",selective for G-quadruplex capture over other DNA structural motifs,–,–,–,–
COc1cccc2c1C(=O)c1c(O)c3c(c(O)c1C2=O)C[C@@](O)(C(=O)CO)C[C@@H]3O[C@H]1C[C@H](N)[C@H](O)[C@H](C)O1 [doxorubicin],–,specifically released,highly enriched,extracellular telomere release,extracellular telomere release
